This data set is described as follows: Solubility in aqueous solution. Type of data set: physicochemical. From the text: In some cases, the DHEAS will associate with or form a complex with the divalent cation which is less soluble than the DHEAS sodium salt.

On to “Dehydroepiandrosterone sulfate [DHEAS-Na]”, for which the solubility result was “about 17 mg/ml”.

These data come from patent US20090118249A1, “DHEAS INHALATION COMPOSITIONS” (priority 2007, published 2009).
